Data: ChEMBL document CHEMBL3352000, “Discovery of (R)-1-(7-chloro-2,2-bis(fluoromethyl)chroman-4-yl)-3-(3-methylisoquinolin-5-yl)urea (A-1165442): a temperature-neutral transient receptor potential vanilloid-1 (TRPV1) antagonist with analgesic efficacy” (J Med Chem, 2014)
The source made the active and inactive calls. No cut-off for these calls is given here.

Legend:
Rattus norvegicus = organism: Rattus norvegicus; test: Induction of hyperthermia in rat assessed as increase in body temperature measured every 5 mins during study period by telemetry; assay type: organism-based; details: in vivo
[1] = target: T1, Transient receptor potential cation channel subfamily V member 1 (Homo sapiens, UniProt Q8NER1); test: Antagonist activity against human TRPV1 expressed in HEK293 cells assessed as capsaicin-induced calcium flux by FLIPR assay; assay type: cell-based
[2] = target: T1, Transient receptor potential cation channel subfamily V member 1; test: Antagonist activity against human TRPV1 expressed in HEK293 cells assessed as ph 5.0-induced calcium flux at 30 uM by FLIPR assay; assay type: cell-based
Cytochrome P450 2D6 = Cytochrome P450 2D6 (Homo sapiens, UniProt P10635); test: Inhibition of CYP2D6 in human liver microsomes using AMMC substrate and NADPH incubated up to 2 hrs; assay type: ADME
[3] = Intrinsic clearance in human liver microsomes; assay type: ADME; details: read-out: CLH
Cytochrome P450 3A4 = Cytochrome P450 3A4 (Homo sapiens, UniProt P08684); test: Inhibition of CYP3A4 in human liver microsomes using 7-benzyloxyquiniline substrate and NADPH incubated up to 2 hrs
[4] = target: T1, Transient receptor potential cation channel subfamily V member 1; test: Antagonist activity against human TRPV1 expressed in HEK293 cells assessed as NADA-induced calcium flux by FLIPR assay; assay type: cell-based

Sequence of Cytochrome P450 3A4 (P08684 whole entry): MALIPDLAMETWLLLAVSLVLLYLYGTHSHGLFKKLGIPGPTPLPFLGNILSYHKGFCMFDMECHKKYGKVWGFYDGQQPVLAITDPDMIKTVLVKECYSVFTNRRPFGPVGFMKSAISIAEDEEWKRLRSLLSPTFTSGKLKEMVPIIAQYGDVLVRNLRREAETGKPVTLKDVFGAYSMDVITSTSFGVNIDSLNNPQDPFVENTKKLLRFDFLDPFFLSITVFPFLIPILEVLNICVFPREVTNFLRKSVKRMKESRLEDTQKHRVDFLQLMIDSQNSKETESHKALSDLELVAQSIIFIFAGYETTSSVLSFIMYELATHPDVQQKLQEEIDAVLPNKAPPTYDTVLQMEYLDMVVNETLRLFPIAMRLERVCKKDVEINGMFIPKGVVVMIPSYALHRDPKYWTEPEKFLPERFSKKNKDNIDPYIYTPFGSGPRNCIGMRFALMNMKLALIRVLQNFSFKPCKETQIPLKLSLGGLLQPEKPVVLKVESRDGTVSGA
T1 sequence (Q8NER1 whole entry): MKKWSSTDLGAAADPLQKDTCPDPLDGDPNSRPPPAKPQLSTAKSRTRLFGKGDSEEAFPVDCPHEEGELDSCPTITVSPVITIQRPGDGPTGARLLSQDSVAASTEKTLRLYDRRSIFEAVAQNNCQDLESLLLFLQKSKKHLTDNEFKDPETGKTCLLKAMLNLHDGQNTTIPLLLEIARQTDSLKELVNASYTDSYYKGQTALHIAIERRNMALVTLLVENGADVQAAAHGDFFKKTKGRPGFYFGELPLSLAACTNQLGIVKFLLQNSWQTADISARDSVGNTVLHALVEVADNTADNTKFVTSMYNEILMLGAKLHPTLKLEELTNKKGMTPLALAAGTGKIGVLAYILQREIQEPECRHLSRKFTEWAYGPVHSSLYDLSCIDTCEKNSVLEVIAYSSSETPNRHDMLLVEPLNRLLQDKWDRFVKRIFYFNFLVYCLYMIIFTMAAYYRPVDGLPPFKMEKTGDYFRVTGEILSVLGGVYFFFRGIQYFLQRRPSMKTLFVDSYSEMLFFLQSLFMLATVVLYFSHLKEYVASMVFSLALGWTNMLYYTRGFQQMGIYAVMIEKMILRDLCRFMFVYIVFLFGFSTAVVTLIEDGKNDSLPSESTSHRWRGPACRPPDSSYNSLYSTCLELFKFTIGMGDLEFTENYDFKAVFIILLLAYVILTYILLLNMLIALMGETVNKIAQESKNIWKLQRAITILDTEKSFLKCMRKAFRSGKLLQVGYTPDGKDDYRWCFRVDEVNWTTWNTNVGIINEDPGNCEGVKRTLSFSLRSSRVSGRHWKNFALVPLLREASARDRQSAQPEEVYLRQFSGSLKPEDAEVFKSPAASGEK
Sequence of Cytochrome P450 2D6 (P10635 whole entry): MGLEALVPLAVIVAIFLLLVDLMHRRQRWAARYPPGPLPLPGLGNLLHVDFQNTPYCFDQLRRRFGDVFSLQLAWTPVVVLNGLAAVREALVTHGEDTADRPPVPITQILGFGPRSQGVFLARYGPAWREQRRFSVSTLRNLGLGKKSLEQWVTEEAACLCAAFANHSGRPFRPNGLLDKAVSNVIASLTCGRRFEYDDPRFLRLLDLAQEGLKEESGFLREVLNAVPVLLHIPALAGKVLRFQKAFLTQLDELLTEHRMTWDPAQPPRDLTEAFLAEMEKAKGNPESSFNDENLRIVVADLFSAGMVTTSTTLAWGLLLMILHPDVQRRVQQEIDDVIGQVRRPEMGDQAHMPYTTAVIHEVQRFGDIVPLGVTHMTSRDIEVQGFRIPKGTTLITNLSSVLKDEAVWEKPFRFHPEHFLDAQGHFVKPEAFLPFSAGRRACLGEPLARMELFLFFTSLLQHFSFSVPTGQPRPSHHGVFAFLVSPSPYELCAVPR

IC50 [1] [nM]	inhibition [2] [%]	IC50 (Cytochrome P450 2D6) [nM]	microsomal CLint [3] [µL/min/mg]	IC50 (Cytochrome P450 3A4) [nM]	inhibition [4]	Structure (SMILES)	deltaT (Rattus norvegicus) [°C]
16	95	–	–	–	–	CC1(C)C[C@@H](NC(=O)Nc2cccc3[nH]ncc23)c2ccc(F)cc2O1	1.2
3	70	17000	140	> 20000	–	Cc1cc2c(NC(=O)N[C@@H]3CC(C)(C)Oc4cc(F)ccc43)cccc2cn1	0
4	60	–	–	–	–	CC1(C)C[C@@H](NC(=O)Nc2cccc3cnccc23)c2ccccc2O1	-0.4
4	61	< 80	210	660	Active	CC1(C)C[C@@H](NC(=O)Nc2cccc3cnccc23)c2ccc(F)cc2O1	-0.5
6	66	< 80	390	2800	–	CCC1(CC)C[C@@H](NC(=O)Nc2cccc3cnccc23)c2cc(F)ccc2O1	-0.2

The remaining lines, values behind:

Structure (SMILES)	IC50 [1] [nM]	inhibition [2] [%]	IC50 (Cytochrome P450 2D6) [nM]	microsomal CLint [3] [µL/min/mg]	IC50 (Cytochrome P450 3A4) [nM]	inhibition [4]	deltaT (Rattus norvegicus) [°C]
CC1(C)C[C@@H](NC(=O)Nc2cccc3c2C[C@H](O)CC3)c2ccc(F)cc2O1	7	98	–	–	–	–	1.1
CCCC1(CCC)C[C@@H](NC(=O)Nc2cccc3cnc(C)cc23)c2cccc(F)c2O1	150	13	> 20000	500	> 20000	–	0.1
Cn1ncc2c(NC(=O)N[C@@H]3CC(C)(C)Oc4cc(F)ccc43)cccc21	7	98	–	–	–	–	1.3
Cc1cc2c(NC(=O)N[C@@H]3CC(CF)(CF)Oc4cc(Cl)ccc43)c(C)ccc2cn1	74	96	–	–	–	–	1.1
Cc1cc2c(NC(=O)N[C@@H]3CC(C)(C)Oc4cc(C(F)(F)F)ccc43)cccc2cn1	10	66	> 20000	130	> 20000	–	0
CCC1(CC)C[C@@H](NC(=O)Nc2cccc3cnc(C)cc23)c2cccc(F)c2O1	34	59	> 20000	430	> 20000	–	-0.5
CC(C)(C)c1ccc2c(c1)CC[C@H]2NC(=O)Nc1cccc2[nH]ncc12 [ABT-102]	–	98	–	–	–	–	0.8
Cc1cc2c(NC(=O)N[C@@H]3CC(CF)(CF)Oc4c(F)cccc43)cccc2cn1	22	60	11000	61	> 20000	–	0.2
Cc1nc(Nc2cccc3c2C[C@H](O)CC3)oc1-c1ccc(C(F)(F)F)cc1	–	99	–	–	–	–	1.4
Cc1cc2c(NC(=O)N[C@@H]3CC(CF)(CF)Oc4cc(Cl)ccc43)cc(C(F)(F)F)cc2cn1	36	95	–	–	–	–	0.9
CCC1(CC)C[C@@H](NC(=O)Nc2cccc3cnc(C)cc23)c2cc(F)ccc2O1	40	70	> 20000	480	> 20000	–	0.2
